Data: patent US20250084039A1, “4-SUBSTITUTED AMINOISOQUINOLINE DERIVATIVES” (Purdue Research Foundation, priority 2016, published 2025)
Like-named read-outs stand apart in the source and are kept apart here.

How the values were obtained:
MV4-11 [1] = assay: Proliferation inhibition screen at 100 nM; type: cell-based; details: 100 nM compound, FIG. 10
Experimental: To determine inhibition at 100 nM or […], 96-well plates were seeded the afternoon before treatment. Plates were then treated with compound diluted in dimethyl sulfoxide (DMSO) as well as a DMSO control the following day for 72 hours. After this time the plates were then treated with 10 μL of CellTiter-Blue Cell Viability Assay (Promega, Madison, WI) for 4 hours. Then the plates were read on a plate reader (Bio-Tek, Winooski, VT). Data was analyzed on Excel as a percent of the DMSO vehicle.
From these cell proliferation studies, MV4-11 appeared to be more sensitive to the compounds than the other cell lines (Table 6A). […] To identify group of compounds potently inhibiting cancer cell proliferation, a lower concentration of compounds (100 nM) were used to screen against MV4-11 (FIG. 10). From these experiments, potent amide compounds A7, A10, A15, A16, A18, A20, B15 and D30 (as indicated by ***, FIG. 10) were selected. […] Typically amides that contain basic amines are included in compound libraries to improve aqueous solubility but it appears that the presence of a basic amine in the side chain of the compounds also facilitated the actual inhibition of MV4-11 proliferation.

FGFR1 = FGFR1 (Homo sapiens (Human), UniProt P11362); assay: Reaction Biology HotSpot kinase assay; type: biochemical; details: 500 nM compound; read-out: Percentage kinase inhibition FGFR1
Experimental: (§1) The Reaction Biology Corporation (www.reactionbiology.com, Malvern, PA) HotSpot assay platform was used to measure kinase/inhibitor interactions exactly as previously described. Kinase and substrate were mixed in a buffer containing 20 mM HEPES pH 7.5, 10 mM MgCl2, 1 mM EGTA, 0.02% Brij35, 0.02 mg/mL BSA, 0.1 mM Na3VO4, 2 mM DTT and 1% DMSO. Single-dose of compounds (500 nM) were then added to each reaction mixture. After 20-minute incubation. ATP (Sigma) and [γ-^33P] ATP (Perkin Elmer) were added at a final total concentration of 100 μM for addition 2 hours at room temperature, followed by spotting onto P81 ion exchange cellulose chromatography paper (Whatman, Inc.). […] Percent remaining kinase activity of a vehicle (DMSO) containing kinase reaction was calculated for each kinase/inhibitor pair using Prism 5 (GraphPad).
as §1, with “1” for “DTT”, “incubation,” for “incubation.”

FLT3 = FLT3 (Homo sapiens (Human), UniProt P36888); assay: Reaction Biology HotSpot kinase assay; type: biochemical; details: 500 nM compound
Experimental: as §1
as §1, with “1” for “DTT”, “incubation,” for “incubation.”

RET = RET (Homo sapiens (Human), UniProt P07949); assay: Reaction Biology HotSpot kinase assay; type: biochemical; details: 500 nM compound; read-out: Percentage kinase inhibition RET
Experimental: as §1
as §1, with “1” for “DTT”, “incubation,” for “incubation.”

TRKC = TRKC (Homo sapiens (Human), UniProt Q16288); assay: Reaction Biology HotSpot kinase assay; type: biochemical; details: 500 nM compound, 100 μM radiolabeled ATP
Experimental: as §1
as §1, with “1” for “DTT”, “incubation,” for “incubation.”

c-Src = c-Src (Homo sapiens (Human), UniProt P12931); assay: Reaction Biology HotSpot kinase assay; type: biochemical; details: 500 nM compound; read-out: Percentage kinase inhibition c-Src
Experimental: as §1
as §1, with “1” for “DTT”, “incubation,” for “incubation.”

c-kit = c-kit (Homo sapiens (Human), UniProt P10721); assay: Reaction Biology HotSpot kinase assay; type: biochemical; details: 500 nM compound, 100 μM radiolabeled ATP
Experimental: as §1
as §1, with “1” for “DTT”, “incubation,” for “incubation.”

K562 = assay: IC50 proliferation assay (Alamar Blue, 72 h); type: cell-based; details: Homo sapiens
Experimental: (§2) IC50 proliferation assay—Cell lines and primary cells were seeded into 96-well plates the afternoon prior to treatment. Approximately 18 hours later, compounds were semi-serially diluted in dimethyl sulfoxide (DMSO) and then growth medium, and added to cells. Plates were incubated for 72 hours prior to addition of Alamar Blue (Life Technologies, Carlsbad, CA). Plates were read after 4 additional hours of incubation at 37° C. using a Bio-Tek Synergy HT plate reader (Bio-Tek, Winooski, VT). Data was analyzed and graphed using GraphPad Prism Software (Graphpad, La Jolla. CA).
(§3) IC50 (proliferation inhibition) against leukemia cell lines MV4-11 and K562. […] MiaPaca-2 (Pancreatic cell line), HLY-1 (Lymphoma cell line), MV4-11 (AML, cell line) and K562 (CML cell line).

MV4-11 [2] = assay: IC50 proliferation assay (Alamar Blue, 72 h); type: cell-based; details: Homo sapiens, MV4-11, 72 h; read-out: IC50 (proliferation inhibition) Cell line - MV4-11
Experimental: as §2, §3

MV-4-11 = assay: Proliferation inhibition at single concentration (CellTiter-Blue); type: cell-based; details: Homo sapiens, MV4-11; 1 μM compound; read-out: Percent inhibition of proliferation MV-4-11
HCT116 = assay: as above; type: cell-based; details: Homo sapiens, HCT-116; 1 μM compound; read-out: Percent inhibition of proliferation HCT116
HeLa = assay: as above; type: cell-based; details: Homo sapiens, HeLa; 1 μM compound; read-out: Percent inhibition of proliferation HeLa
MCF-7 = assay: as above; type: cell-based; details: Homo sapiens, MCF7; 1 μM compound; read-out: Percent inhibition of proliferation MCF-7
MOLM14 = assay: IC50 determination (proliferation assay, CellTiter-Blue); type: cell-based; details: Homo sapiens, MOLM-14
Experimental: (§4) Cell lines were seeded into 96-well plates the afternoon prior to treatment. Approximately 18 hours later, compounds were diluted in dimethyl sulfoxide (DMSO) and added to cells. Plates were incubated for 72 hours and cells viability determined with CellTiter-Blue Cell Viability Assay (Promega, Madison, WI). Plates were read after 4 additional hours of incubation at 37° C. using plate reader (Bio-Tek, Winooski. VT). Data was analyzed and graphed using GraphPad Prism Software (Graphpad. La Jolla, CA). […]

MV4-11 [3] = assay: as above; type: cell-based
Experimental: as §4

Sequence of FLT3 (P36888 27-993): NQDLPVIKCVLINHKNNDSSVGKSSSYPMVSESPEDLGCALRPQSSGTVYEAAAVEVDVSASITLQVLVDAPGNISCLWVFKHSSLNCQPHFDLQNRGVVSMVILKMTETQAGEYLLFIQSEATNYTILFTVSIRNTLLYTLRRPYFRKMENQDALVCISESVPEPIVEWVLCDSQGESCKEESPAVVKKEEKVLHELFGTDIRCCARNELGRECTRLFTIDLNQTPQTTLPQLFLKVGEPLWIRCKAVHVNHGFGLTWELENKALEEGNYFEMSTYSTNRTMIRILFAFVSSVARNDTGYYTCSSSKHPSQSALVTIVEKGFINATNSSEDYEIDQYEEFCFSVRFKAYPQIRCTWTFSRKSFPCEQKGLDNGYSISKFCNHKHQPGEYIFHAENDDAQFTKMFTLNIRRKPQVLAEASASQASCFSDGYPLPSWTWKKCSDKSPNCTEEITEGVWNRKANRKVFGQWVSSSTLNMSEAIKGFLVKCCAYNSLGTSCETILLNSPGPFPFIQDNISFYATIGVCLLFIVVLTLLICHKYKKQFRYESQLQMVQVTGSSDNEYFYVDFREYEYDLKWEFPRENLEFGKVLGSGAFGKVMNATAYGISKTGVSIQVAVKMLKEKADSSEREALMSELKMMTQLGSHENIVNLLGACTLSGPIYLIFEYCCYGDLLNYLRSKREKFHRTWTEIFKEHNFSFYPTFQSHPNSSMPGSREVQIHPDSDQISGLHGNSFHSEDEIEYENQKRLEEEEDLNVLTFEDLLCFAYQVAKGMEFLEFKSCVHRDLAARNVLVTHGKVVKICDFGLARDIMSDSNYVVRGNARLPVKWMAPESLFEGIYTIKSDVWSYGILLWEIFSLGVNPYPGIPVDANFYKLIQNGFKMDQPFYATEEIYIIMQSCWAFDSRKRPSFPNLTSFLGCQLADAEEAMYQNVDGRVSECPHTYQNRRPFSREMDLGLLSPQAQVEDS
Sequence of RET (P07949 29-1114): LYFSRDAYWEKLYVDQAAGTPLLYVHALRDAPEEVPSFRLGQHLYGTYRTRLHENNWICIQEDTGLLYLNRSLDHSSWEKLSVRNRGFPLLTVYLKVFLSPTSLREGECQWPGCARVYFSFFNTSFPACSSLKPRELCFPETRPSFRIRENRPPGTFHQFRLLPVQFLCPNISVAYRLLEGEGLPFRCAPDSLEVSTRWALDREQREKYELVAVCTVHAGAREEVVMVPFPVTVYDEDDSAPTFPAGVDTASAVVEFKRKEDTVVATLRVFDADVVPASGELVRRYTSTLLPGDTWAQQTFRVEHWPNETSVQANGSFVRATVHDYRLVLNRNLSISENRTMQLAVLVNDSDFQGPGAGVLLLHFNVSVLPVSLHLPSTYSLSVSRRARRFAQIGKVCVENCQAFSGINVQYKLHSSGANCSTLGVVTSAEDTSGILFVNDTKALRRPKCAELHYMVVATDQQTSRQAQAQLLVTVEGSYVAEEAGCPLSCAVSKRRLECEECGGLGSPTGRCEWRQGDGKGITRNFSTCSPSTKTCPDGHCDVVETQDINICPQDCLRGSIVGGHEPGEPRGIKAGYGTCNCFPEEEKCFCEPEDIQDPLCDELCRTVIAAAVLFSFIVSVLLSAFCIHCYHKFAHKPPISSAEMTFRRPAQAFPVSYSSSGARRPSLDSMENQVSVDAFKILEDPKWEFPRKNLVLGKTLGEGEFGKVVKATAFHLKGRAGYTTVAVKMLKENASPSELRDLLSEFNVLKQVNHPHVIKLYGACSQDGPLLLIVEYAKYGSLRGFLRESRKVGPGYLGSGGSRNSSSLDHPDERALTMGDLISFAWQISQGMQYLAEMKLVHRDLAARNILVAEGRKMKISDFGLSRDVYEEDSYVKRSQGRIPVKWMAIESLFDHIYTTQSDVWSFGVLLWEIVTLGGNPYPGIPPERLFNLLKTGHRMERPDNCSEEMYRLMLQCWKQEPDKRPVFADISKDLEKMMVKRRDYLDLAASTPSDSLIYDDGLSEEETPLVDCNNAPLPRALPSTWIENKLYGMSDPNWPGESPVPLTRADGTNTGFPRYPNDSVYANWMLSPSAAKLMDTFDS
Sequence of c-Src (P12931 whole entry, looked up): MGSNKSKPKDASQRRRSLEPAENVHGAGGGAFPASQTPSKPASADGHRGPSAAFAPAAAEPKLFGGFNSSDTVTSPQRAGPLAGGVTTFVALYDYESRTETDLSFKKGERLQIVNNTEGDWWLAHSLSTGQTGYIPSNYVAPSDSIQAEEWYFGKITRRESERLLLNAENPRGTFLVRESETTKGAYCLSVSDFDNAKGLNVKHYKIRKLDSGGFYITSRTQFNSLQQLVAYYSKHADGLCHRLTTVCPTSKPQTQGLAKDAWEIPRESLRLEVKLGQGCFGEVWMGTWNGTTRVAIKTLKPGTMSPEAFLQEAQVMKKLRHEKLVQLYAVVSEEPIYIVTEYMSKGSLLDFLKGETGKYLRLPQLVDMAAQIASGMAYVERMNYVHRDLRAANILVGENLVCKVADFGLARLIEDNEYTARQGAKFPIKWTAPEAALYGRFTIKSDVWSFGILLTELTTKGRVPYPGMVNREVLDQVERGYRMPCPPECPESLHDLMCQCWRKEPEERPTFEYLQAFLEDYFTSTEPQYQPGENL
Sequence of TRKC (Q16288 32-839): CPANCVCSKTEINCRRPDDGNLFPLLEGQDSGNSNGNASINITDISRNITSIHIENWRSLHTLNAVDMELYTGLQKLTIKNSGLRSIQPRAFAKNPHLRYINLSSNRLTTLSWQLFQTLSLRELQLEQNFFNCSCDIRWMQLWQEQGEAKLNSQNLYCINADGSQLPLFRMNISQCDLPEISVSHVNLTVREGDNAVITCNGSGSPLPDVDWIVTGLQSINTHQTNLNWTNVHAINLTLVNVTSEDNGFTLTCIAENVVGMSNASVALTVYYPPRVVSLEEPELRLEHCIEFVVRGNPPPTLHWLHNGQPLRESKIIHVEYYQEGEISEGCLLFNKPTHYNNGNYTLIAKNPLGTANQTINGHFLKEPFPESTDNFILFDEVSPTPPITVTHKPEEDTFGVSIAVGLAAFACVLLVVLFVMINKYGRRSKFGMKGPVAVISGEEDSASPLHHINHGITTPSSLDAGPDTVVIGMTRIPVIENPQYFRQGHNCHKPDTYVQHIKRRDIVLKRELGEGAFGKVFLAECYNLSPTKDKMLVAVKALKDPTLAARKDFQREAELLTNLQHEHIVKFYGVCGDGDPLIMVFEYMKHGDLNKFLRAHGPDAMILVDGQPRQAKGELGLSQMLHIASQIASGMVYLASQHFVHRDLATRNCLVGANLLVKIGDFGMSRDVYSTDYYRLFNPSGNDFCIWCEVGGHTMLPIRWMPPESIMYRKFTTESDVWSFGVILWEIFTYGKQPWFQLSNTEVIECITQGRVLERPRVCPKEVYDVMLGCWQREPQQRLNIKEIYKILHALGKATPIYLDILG
Sequence of FGFR1 (P11362 22-822): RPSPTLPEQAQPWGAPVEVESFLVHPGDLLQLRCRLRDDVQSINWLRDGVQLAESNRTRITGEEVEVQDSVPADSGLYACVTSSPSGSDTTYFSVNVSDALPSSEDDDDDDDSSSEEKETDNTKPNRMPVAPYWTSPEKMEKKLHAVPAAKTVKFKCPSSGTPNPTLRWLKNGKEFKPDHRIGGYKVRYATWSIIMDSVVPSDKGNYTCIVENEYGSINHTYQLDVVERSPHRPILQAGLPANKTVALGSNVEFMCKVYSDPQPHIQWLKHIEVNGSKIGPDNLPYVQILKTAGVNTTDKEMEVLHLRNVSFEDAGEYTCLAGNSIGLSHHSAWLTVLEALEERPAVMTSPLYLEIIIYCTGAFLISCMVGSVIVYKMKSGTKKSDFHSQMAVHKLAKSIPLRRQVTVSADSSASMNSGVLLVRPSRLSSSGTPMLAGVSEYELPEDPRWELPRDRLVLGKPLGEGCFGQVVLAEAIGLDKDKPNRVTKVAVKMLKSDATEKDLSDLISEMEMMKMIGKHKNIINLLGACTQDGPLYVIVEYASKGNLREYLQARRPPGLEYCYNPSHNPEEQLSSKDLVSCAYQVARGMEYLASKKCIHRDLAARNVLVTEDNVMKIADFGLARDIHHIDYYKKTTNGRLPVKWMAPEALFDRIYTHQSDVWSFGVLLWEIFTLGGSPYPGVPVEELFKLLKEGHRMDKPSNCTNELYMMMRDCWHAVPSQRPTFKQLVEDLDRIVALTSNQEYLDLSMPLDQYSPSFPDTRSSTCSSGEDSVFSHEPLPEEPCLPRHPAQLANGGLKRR

Nc1ncc2ccc(Cl)cc2c1C#Cc1ccc(C(=O)NCCCN2CCCCC2)cc1 [Compound A10]
inhibition of MV4-11 proliferation in words (MV4-11 [1]): potent

CN(C)CC(O)CNC(=O)c1ccc(C#Cc2c(N)ncc3ccc(Cl)cc23)cc1 (stereo not drawn) [Compound A15]
inhibition of MV4-11 proliferation in words (MV4-11 [1]): potent

CCN(CC)CC(O)CNC(=O)c1ccc(C#Cc2c(N)ncc3ccc(Cl)cc23)cc1 (stereo not drawn) [Compound A16]
inhibition of MV4-11 proliferation in words (MV4-11 [1]): potent

COCCCNC(=O)c1ccc(C#Cc2c(N)ncc3ccc(Cl)cc23)cc1 [Compound A25]
inhibition of MV4-11 proliferation in words (MV4-11 [1]): inactive

CCN(CC)CCNC(=O)c1ccc(C)c(C#Cc2c(N)ncc3ccc(Cl)cc23)c1 [HSN247]
inhibition at 0.5 µM (FGFR1): 6% | % inhibition of FLT3 activity (FLT3): 75% | inhibition at 0.5 µM (FLT3; read-out: % inhibition of FLT3 activity): 74% | inhibition at 0.5 µM (RET): 3% | inhibition at 0.5 µM (TRKC): 77% | inhibition at 0.5 µM (c-Src): 3% | inhibition at 0.5 µM (c-kit): 86% | IC50 (K562; K562, 72 h, read-out: IC50 (proliferation inhibition) Cell line - K562): 25 nM | IC50 (K562; K562, Table 18, read-out: Inhibition of proliferation of K562 cell lines (CML)): 25.7 ± 0.31 nM | IC50 (MV4-11 [2]): 154 nM | inhibition at 1 µM (MV-4-11): 58% | inhibition at 1 µM (HCT116): 54% | inhibition at 1 µM (HeLa): 100% | inhibition at 1 µM (MCF-7): 100% | IC50 (MOLM14): 129 ± 8.2 nM | proliferation inhibition in words, MV4-11 / AML (MV4-11 [3]): only moderate inhibitors | IC50 (MV4-11 [3]; Homo sapiens, MV4-11): 154 ± 7.1 nM
